Where two headings read alike, the source gives them in different places.
Tests used:
[1] = Phase 1 study: plasma pharmacokinetics in patients; type: in vivo, human; conditions: human, plasma, po; for AUC(0-t): read-out: AUC0-24 h of (1-h); for Tmax: read-out: Tmax* of (1-h); for Cmax: read-out: Cmax of (1-h)
Procedure: All patients received compound (1-g) orally. The time of day for administration of compound (1-g) was consistent. Compound (1-g) was taken whole with liquid(s) and with food in the morning. The patient avoided taking other medications at the same time as compound (1-g). When possible, the patient took other medications in the evening or separated by a minimum of 4 hours following compound (1-g) dosing. On scheduled PK collection days (Cycle 1 Day 1, Cycle 1 Day 15, and Day 1 of Cycles 2, 3, 4, and 6) patients were instructed to wait until they arrive at the study center to take their study drug when told. If a patient missed a dose of compound (1-g), the patient was required to take the dose as soon as possible, but not less than 12 hours before the next dose is due. If vomiting occurred after taking the study treatment, the patient was instructed not to retake the dose and record the dose recorded as taken in the dosing diary, noting that the patient vomited and marking the time of vomiting. Patients were instructed to take the next scheduled dose of compound (1-g).
The plasma PK parameters (including AUC(0-∞), AUC(0-τ), Cmax, tmax, and T1/2) of compound (1-g) following oral administration was assessed by analysis of blood samples. During treatment, PK blood samples were taken at approximately the following time points: • Cycle 1 Day 1, and Day 15: pre-dose; at 1, 2, and 4-hour post-dose (±5 min); 6 and 8-hour post-dose (±10 min); and 24 hours post-dose (+1 hour); • Cycle 2, 3, 4, and 6 Day 1: pre-dose only.
Plasma concentrations of compound (1-g) were used to calculate the PK parameters. These parameters were listed by individual patient and summarized by descriptive statistics (means, medians, ranges, standard deviations, and coefficients of variation as appropriate) by cohort.
Compound (1-g) was administered orally to patients once a day at 100, 200, 300 mg, 400 mg, and 600 mg doses.

MCF7 cells = test: MCF7 cell growth inhibition (luminescence-based proliferation assay, CellTiter-Glo)
Procedure: MCF7 cells were obtained from American Type Culture Collection (ATCC). For cell growth assay, MCF7 cells were seeded in 96-well plates at 2000 cells/well in 90 μL of DMEM medium containing 10% fetal bovine serum, and then incubated at 37° C. with 5% CO2 in air overnight. The following day, compound (1-g) and compound (1-h) were administered to the cells by using 1000× compound stock solution prepared in DMSO at concentrations of 3, 1, 0.33, 0.11, 0.037, 0.012, 0.0041, 0.0013, and 0.00046 mM. 1000x compound stock solution was first diluted in culturing medium to 10×, then 10 μL compound medium was added to each well in the cell plates. After administration of compound (1-g) and compound (1-h), the cells were then incubated at 37° C. for 6 days. Upon completion, the plates were equilibrated at room temperature for approximately 10 minutes. 100 μL of CellTiter-Glo® Reagent (Promega) was added to each well. The plates were then incubated at room temperature for 10 minutes and luminescence was recorded by EnSpire plate reader (PerkinElmer).

[2] = 100 mg, patient plasma after oral (1-g) 100 mg QD, C1D15, n = 2, mean
[3] = 200 mg, patient plasma after oral (1-g) 200 mg QD, C1D1, n = 12, mean
[4] = 200 mg, patient plasma after oral (1-g) 200 mg QD, C1D15, n = 12, mean
[5] = 300 mg, patient plasma after oral (1-g) 300 mg QD, C1D1, n = 10, mean
[6] = 300 mg, patient plasma after oral (1-g) 300 mg QD, C1D15, n = 10, mean
[7] = 400 mg, patient plasma after oral (1-g) 400 mg QD, C1D1, n = 6, mean
[8] = 400 mg, patient plasma after oral (1-g) 400 mg QD, C1D15, n = 5, mean
[9] = 600 mg, patient plasma after oral (1-g) 600 mg QD, C1D1, n = 4, mean
[10] = 600 mg, patient plasma after oral (1-g) 600 mg QD, C1D15, n = 4, mean

## O=C1CC[C@@H](N2Cc3cc(N4CCN(CC5CCN(c6ccc([C@@H]7c8ccc(O)cc8OC[C@@H]7c7ccccc7)cc6F)CC5)CC4)ccc3C2=O)C(=O)N1 [compound (1-h), (R)-3-(5-(4-((1-(2-fluoro-4-((3S,4R)-7-hydroxy-3-phenylchroman-4-yl)phenyl)piperidin-4-yl)methyl)piperazin-1-yl)-1-oxoisoindolin-2-yl)piperidine-2,6-dione]
[1]; 100 mg, patient plasma after oral (1-g) 100 mg QD, C1D1, n = 1, mean
  AUC(0-t): 0.332 µg·h/mL
[1]; 100 mg, patient plasma after oral (1-g) 100 mg QD, C1D15, n = 2, *median value
  Tmax: 12 h
[1]; [2]
  AUC(0-t): 7.08 µg·h/mL
  Cmax: 0.326 µg/mL
[1]; [3]
  AUC(0-t): 1.03 µg·h/mL
  Cmax: 0.0688 µg/mL
[1]; 200 mg, patient plasma after oral (1-g) 200 mg QD, C1D15, n = 12, *median value
  Tmax: 7.17 h
[1]; [4]
  AUC(0-t): 9.54 µg·h/mL
  Cmax: 0.428 µg/mL
[1]; [5]
  AUC(0-t): 1.61 µg·h/mL
  Cmax: 0.112 µg/mL
[1]; 300 mg, patient plasma after oral (1-g) 300 mg QD, C1D15, n = 10, *median value
  Tmax: 5.8 h
[1]; [6]
  AUC(0-t): 15.4 µg·h/mL
  Cmax: 0.68 µg/mL
[1]; [7]
  AUC(0-t): 1.74 µg·h/mL
  Cmax: 0.118 µg/mL
[1]; 400 mg, patient plasma after oral (1-g) 400 mg QD, C1D15, n = 5, *median value
  Tmax: 4.8 h
[1]; [8]
  AUC(0-t): 17.9 µg·h/mL
  Cmax: 0.82 µg/mL
[1]; [9]
  AUC(0-t): 2.47 µg·h/mL
  Cmax: 0.17 µg/mL
[1]; 600 mg, patient plasma after oral (1-g) 600 mg QD, C1D15, n = 4, *median value
  Tmax: 10 h
[1]; [10]
  AUC(0-t): 18.7 µg·h/mL
  Cmax: 0.829 µg/mL
MCF7 cells; Homo sapiens, 144 h, MCF7 cells, 6 days, CellTiter-Glo
  GI50: 9 nM
MCF7 cells; MCF7 cell proliferation assay
  reduced the tumor growth by (FIG. 3A/3B): about 62%

— patent US20250381179A1, “CHROMAN-BASED COMPOUNDS FOR TREATING CANCER” (priority 2024, published 2025)
